Laboratory results published in US20090061000A1, “PHARMACEUTICAL FORMULATION USE 030” (AstraZeneca AB, priority 2007, published 2009).

Tests used:
CYP2C9 = target: T1, CYP2C9 (Homo sapiens, UniProt P11712); assay: Cocktail drug-drug interaction study: tolbutamide pharmacokinetics as probe of CYP2C9 activity; type: in vivo; conditions: co-administration of 500 mg Compound A with tolbutamide 500 mg
T1 construct: from tissue
Source text: 24 healthy male subjects aged between 20 and 43 years received the following dosing regimens in random order: • 1.
The three treatments were separated by a wash-out period of 7 to 21 days.

thrombin = thrombin (Homo sapiens, UniProt P00734); conditions: free amidine metabolite of Compound A; cited from earlier work

T1 sequence (P11712 whole entry): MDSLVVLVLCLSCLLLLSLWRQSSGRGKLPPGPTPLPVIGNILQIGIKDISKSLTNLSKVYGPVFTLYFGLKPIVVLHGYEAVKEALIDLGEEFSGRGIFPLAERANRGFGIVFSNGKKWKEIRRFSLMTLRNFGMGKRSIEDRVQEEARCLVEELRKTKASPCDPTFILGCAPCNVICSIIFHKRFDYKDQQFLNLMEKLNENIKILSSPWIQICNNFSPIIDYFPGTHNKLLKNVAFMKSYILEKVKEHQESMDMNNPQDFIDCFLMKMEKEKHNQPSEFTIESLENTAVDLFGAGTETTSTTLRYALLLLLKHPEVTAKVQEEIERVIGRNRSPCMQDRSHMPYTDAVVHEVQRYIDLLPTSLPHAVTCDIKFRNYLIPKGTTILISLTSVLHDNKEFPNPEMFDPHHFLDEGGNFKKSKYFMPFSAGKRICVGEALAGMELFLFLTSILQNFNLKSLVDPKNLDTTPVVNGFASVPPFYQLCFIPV

effect on CYP2C9 activity (influence on the pharmacokinetics of tolbutamide) (CYP2C9)	SMILES	inhibition of thrombin (thrombin)
no effect	CO/N=C(\N)c1ccc(CNC(=O)[C@@H]2CCN2C(=O)[C@H](O)c2cc(Cl)cc(OC(F)F)c2)cc1 [Compound A, Ph(3-Cl)(5-OCHF2)—(R)CH(OH)C(O)—(S)Aze-Pab(OMe)]	–
–	N=C(N)c1ccc(CNC(=O)[C@@H]2CCN2C(=O)[C@H](O)c2cc(Cl)cc(OC(F)F)c2)cc1 [Compound C, Ph(3-Cl)(5-OCHF2)—(R)CH(OH)C(O)—(S)Aze-Pab]	has been found to inhibit thrombin
